The subject of one experiment is MRSA 13-23. The experiment in a line: MIC, agar dilution, MRSA 13-23. Conditions: Staphylococcus aureus; MRSA 13-23; read-out: MIC. The format is cell-based. (In agar dilution, organisms are placed on agar that contains the substance at set levels.)
The next experiment deals with MRSA ATCC -BAA-976. The experiment in a line: MIC, agar dilution, MRSA ATCC-BAA-976 (clindamycin-resistant). It is filed as cell-based. Conditions: Staphylococcus aureus; MRSA ATCC-BAA-976, clindamycin-resistant S. aureus; read-out: MIC.
The next experiment deals with MSSA 15. The experiment can be described thus: MIC, agar dilution, MSSA 15 (clinical isolate). It is filed as cell-based, S. aureus. The conditions noted are these: Staphylococcus aureus; MSSA 15, isolated from patients in China; read-out: MIC.
The test system of the next experiment is VISA ATCC 700699. The experiment in a line: MIC, agar dilution, VISA ATCC 700699. It is filed as cell-based. The conditions noted are these: Staphylococcus aureus; VISA ATCC 700699; read-out: MIC.
The subject of the next experiment is S.h ATCC 35982. The experiment in a line: MIC, agar dilution, S.h ATCC 35982. The format is cell-based. Conditions: Staphylococcus hominis, ATCC35982; S. hominis ATCC 35982; read-out: MIC.
Experiment [1] relates to drug-susceptible strains: MSSA, MSSE, S. saprophyticus, S. hominis. The experiment in a line: MIC across the panel of drug-susceptible Gram-positive strains. It is filed as cell-based. Conditions: drug-susceptible Gram-positive strains of Table 1; for MIC: 18 h, read-out: MICs (range over strains). The text has this: SAR study for antibacterial activity against drug-susceptible Gram-positive bacteria was initially carried out, taking Lev and compound 1 as reference drugs. […] Bacteria strains used in this study were from the ATCC collection and clinical isolates in Chinese hospitals. The influence of the methylenedioxy ring was explored first, and compounds 6 and 10 were created and tested.

The next experiment relates to MSSE ATCC 12228. The experiment in a line: MIC, agar dilution, MSSE ATCC 12228. It is filed as cell-based, S. epidermidis. The conditions noted are these: Staphylococcus epidermidis, ATCC12228; MSSE ATCC 12228; read-out: MIC.
In another experiment the test system is VISA ATCC 700698. The experiment in a line: MIC, agar dilution, VISA ATCC 700698. The format is cell-based. Conditions: Staphylococcus aureus; VISA ATCC 700698; read-out: MIC.
A further experiment deals with MSSE 16-5. The experiment in a line: MIC, agar dilution, MSSE 16-5 (clinical isolate). The format is cell-based, S. epidermidis. The conditions noted are these: Staphylococcus epidermidis; MSSE 16-5, isolated from patients in China; read-out: MIC.
A further experiment concerns MRSA ATCC-B AA-1708. The experiment can be described thus: MIC, agar dilution, MRSA ATCC-BAA-1708 (mupA positive). The format is cell-based. Conditions: Staphylococcus aureus; MRSA ATCC-BAA-1708, mupA positive (mupirocin resistance); read-out: MIC.
A further experiment concerns MRSA ATCC 43300. The experiment can be described thus: MIC, agar dilution, MRSA ATCC 43300. The format is cell-based. The conditions noted are these: Staphylococcus aureus; MRSA ATCC 43300; read-out: MIC.
The next experiment concerns MRSA 13-18. The experiment in a line: MIC, agar dilution, MRSA 13-18. The format is cell-based. Conditions: Staphylococcus aureus; MRSA 13-18; read-out: MIC.
The subject of a further experiment is MSSA 16-1. The experiment in a line: MIC, agar dilution, MSSA 16-1 (clinical isolate). The format is cell-based, S. aureus. The conditions noted are these: Staphylococcus aureus; MSSA 16-1, isolated from patients in China; read-out: MIC.
Another experiment concerns MSSA ATCC 29213. The experiment in a line: MIC, agar dilution, MSSA ATCC 29213. It is filed as cell-based, S. aureus. Conditions: Staphylococcus aureus; MSSA ATCC 29213; read-out: MIC.
A further experiment deals with MRSA 16-34. The experiment in a line: MIC, agar dilution, MRSA 16-34. It is filed as cell-based. The conditions noted are these: Staphylococcus aureus; MRSA 16-34; read-out: MIC.
The next experiment concerns MRSE 16-5. The experiment in a line: MIC, agar dilution, MRSE 16-5. It is filed as cell-based, S. epidermidis. The conditions noted are these: Staphylococcus epidermidis; MRSE 16-5; read-out: MIC.
A further experiment has as its system MRSE 13-3. The experiment in a line: MIC, agar dilution, MRSE 13-3. The format is cell-based, S. epidermidis. The conditions noted are these: Staphylococcus epidermidis; MRSE 13-3; read-out: MIC.
The test system of another experiment is S.s ATCC 15305. The experiment can be described thus: MIC, agar dilution, S.s ATCC 15305. Conditions: Staphylococcus saprophyticus, ATCC15305; S. saprophyticus ATCC 15305; read-out: MIC. It is filed as cell-based.

We go through four compounds from paper PMC6429263, “Evolution and Antibacterial Evaluation of 8-Hydroxy-cycloberberine Derivatives as a Novel Family of Antibacterial Agents Against MRSA” (Molecules, 2019).

`COc1ccc2c(c[n+]3ccc4cc5c(c6c(Cc7cccc(C)c7)cc2c3c46)OCO5)c1O` [13h, 1,2-Methylenedioxy-8-hydroxy-9-methoxy-13-m-methylbenzylcycloberberine chloride]: the MIC with MRSA 13-23 was 8 µg/mL; in the experiment on MRSA ATCC -BAA-976, 8 µg/mL; in the experiment on MSSA 15, 4 µg/mL; with VISA ATCC 700699 it was 4 µg/mL; with S.h ATCC 35982, 8 µg/mL; in experiment [1], 2 to 16 µg/mL. Moreover, the MIC in the experiment with MSSE ATCC 12228 amounted to 4 µg/mL; with VISA ATCC 700698, 4 µg/mL; in the experiment on MSSE 16-5, 2 µg/mL; with MRSA ATCC-B AA-1708, 4 µg/mL; with MRSA ATCC 43300, 8 µg/mL; with MRSA 13-18, 8 µg/mL. The MIC turned out to be 4 µg/mL in the experiment with MSSA 16-1; 4 µg/mL in the experiment on MSSA ATCC 29213; 4 µg/mL in the experiment with MRSA 16-34; 4 µg/mL in the experiment on MRSE 16-5; 4 µg/mL with MRSE 13-3; 16 µg/mL with S.s ATCC 15305.

On to `COc1ccc2c(c[n+]3ccc4cc5c(c6c(Cc7ccccc7[N+](=O)[O-])cc2c3c46)OCO5)c1O` [13p, 1,2-Methylenedioxy-8-hydroxy-9-methoxy-13-o-nitrobenzylcycloberberine chloride], for which the MIC in the experiment on MRSA 13-23 was 8 µg/mL; in the experiment on MRSA ATCC -BAA-976, 8 µg/mL; with MSSA 15 it was 8 µg/mL; with VISA ATCC 700699 it was 4 µg/mL; in the experiment on S.h ATCC 35982, 8 µg/mL; in experiment [1], 4 to 16 µg/mL. In addition, the MIC was 8 µg/mL in the experiment on MSSE ATCC 12228; 8 µg/mL in the experiment on VISA ATCC 700698; 4 µg/mL in the experiment with MSSE 16-5; 4 µg/mL in the experiment on MRSA ATCC-B AA-1708; 8 µg/mL with MRSA ATCC 43300; 16 µg/mL with MRSA 13-18. Further, the MIC amounted to 4 µg/mL with MSSA 16-1; 8 µg/mL in the experiment on MSSA ATCC 29213; 4 µg/mL in the experiment with MRSA 16-34; 8 µg/mL in the experiment with MRSE 16-5; 32 µg/mL with MRSE 13-3; 16 µg/mL with S.s ATCC 15305.

Turning to `COc1ccc2c(c[n+]3c4c2ccc2c(OC)c(OC)cc(c24)CC3)c1O` [compound 6, 1,2-Dimethoxy-8-hydroxy-9-methoxycycloberberine Chloride], the MIC in the experiment with MRSA 13-23, with MRSA ATCC -BAA-976, in the experiment with MSSA 15, in the experiment with VISA ATCC 700699, in the experiment with S.h ATCC 35982 and with MSSE ATCC 12228 was more than 64 µg/mL throughout. Besides, the MIC in the experiment with VISA ATCC 700698, in the experiment on MSSE 16-5, in the experiment on MRSA ATCC-B AA-1708, with MRSA ATCC 43300, with MRSA 13-18 and in the experiment on MSSA 16-1 was more than 64 µg/mL in each case. The MIC in the experiment on MSSA ATCC 29213, in the experiment with MRSA 16-34, in the experiment with MRSE 16-5, with MRSE 13-3 and in the experiment with S.s ATCC 15305 was more than 64 µg/mL each time. In addition, the “antimicrobial activity” value in experiment [1] is recorded as “lost the antimicrobial activities partially or completely”.

With `COc1ccc2c(c[n+]3c4c2ccc2c(O)c(O)cc(c24)CC3)c1O` [compound 10, 1,2,8-Trihydroxy-9-methoxycycloberberine Chloride], the MIC was found to be 64 µg/mL in the experiment on MRSA 13-23; 64 µg/mL in the experiment with MRSA ATCC -BAA-976; 16 µg/mL with MSSA 15; 32 µg/mL in the experiment on VISA ATCC 700699; 32 µg/mL with S.h ATCC 35982; 8 µg/mL in the experiment with MSSE ATCC 12228. Also, the MIC in the experiment with VISA ATCC 700698 came out at 32 µg/mL; in the experiment on MSSE 16-5 it was 16 µg/mL; in the experiment on MRSA ATCC-B AA-1708 it was 16 µg/mL; in the experiment with MRSA ATCC 43300, 32 µg/mL; in the experiment on MRSA 13-18, 32 µg/mL; in the experiment on MSSA 16-1, 32 µg/mL. In addition, the MIC with MSSA ATCC 29213 came out at 32 µg/mL; in the experiment on MRSA 16-34, 16 µg/mL; in the experiment with MRSE 16-5 it was 16 µg/mL; with MRSE 13-3, 32 µg/mL; in the experiment with S.s ATCC 15305 it was 32 µg/mL. Besides, in [1], the “antimicrobial activity” value was “lost the antimicrobial activities partially or completely”.
